Laboratory results as given in ChEMBL document CHEMBL5661943, “ASAP - In vitro antiviral effect” (2024).

Assays:
[1] = system: Zika virus; assay: Functional CPE-based assay to measure dose dependent changes in antiviral-drug inhibitory efficacy against Zika virus MR766 in Vero E6 miRFP670 cells. Cells are treated with antiviral candidates that are serially diluted. EC50 is reported via analysis of MTS assay as a readout of CPE. The assay has been performed by KU Leuven.; format: organism-based, Chlorocebus sabaeus, Vero C1008; details: Zika virus
[2] = system: dengue virus type 2; assay: Functional assay to measure dose dependent changes in antiviral-drug inhibitory efficacy against Dengue virus type 2 New Guinea C in Vero E6 miRFP670 cells (cotreated with P-gp inhibitor, CP100356). Cells are treated with antiviral candidates that are serially diluted, following infection, cells are fixed. EC50 is reported via analysis of fluorescence intensity using high-content imager. The …; format: organism-based, Chlorocebus sabaeus, Vero C1008; details: Dengue virus

| SMILES | EC50 ([1]; Vero C1008) [µM] | EC50 ([2]; Vero C1008) [µM] | other results |
| --- | --- | --- | --- |
| C=CC[C@H](Nc1ccc(-c2nn[nH]n2)cc1)c1cc(Cl)cc(NC(=O)OCc2ccccc2)c1 | 13.7 | 1.84 | EC90 ([1]; Vero C1008, Baseline response 0 %, EC90 CI (lower) 0 uM, EC90 CI (upper) -3.27181e+18 uM, Hill slope 17.95, Maximum measured 103.91 %, Maximum response 100 %, Minimum measured 1.446 %, R squared 0.986): 15.5 µM; EC90 ([2]; Vero C1008, Baseline response 0 %, EC90 CI (lower) 0.301 uM, EC90 CI (upper) 0.468 uM, Hill slope -1.382, Maximum measured 87.879 %, Maximum response 100 %, Minimum measured 3.84 %, P-gp concentration 500 nM, R squared 0.99, P-gp inhibitor CP100356): 9.02 µM |
| CCCNC(=O)[C@H](Nc1cccc(-c2nn[nH]n2)c1)c1cc(Cl)cc(NC(=O)OCc2ccccc2)c1 | > 50 | > 50 | EC90 ([1]; Vero C1008, Baseline response 0 %, Hill slope 3.408, Maximum measured 22.38 %, Maximum response 100 %, Minimum measured 1.712 %, R squared 0.919): > 50 µM; EC90 ([2]; Vero C1008, Baseline response 0 %, Hill slope 1.238, Maximum measured 113.655 %, Maximum response 100 %, Minimum measured 85.317 %, P-gp concentration 500 nM, R squared 0.426, P-gp inhibitor CP100356): > 50 µM |
| NCc1cc(/C=C/C(=O)O)cc(NC(=O)c2cc(Cl)cc(NC(=O)OCc3ccccc3)c2)c1 | > 50 | > 50 | EC90 ([1]; Vero C1008, Baseline response 0 %, Hill slope -0.386, Maximum measured 1.272 %, Maximum response 100 %, Minimum measured -0.891 %, R squared 0.02): > 50 µM; EC90 ([2]; Vero C1008, Maximum measured 167.512 %, Minimum measured 81.46 %, P-gp concentration 500 nM, P-gp inhibitor CP100356): > 50 µM |
| C=CC[C@H](Nc1cc(Cl)cc(NC(=O)OCc2ccccc2)c1)c1ccc(-c2nn[nH]n2)cc1 | 2.26 | < 0.391 | EC90 ([1]; Vero C1008, Baseline response 0 %, EC90 CI (lower) 3.03 uM, EC90 CI (upper) 8.689 uM, Hill slope 2.685, Maximum measured 114.091 %, Maximum response 100 %, Minimum measured 6.468 %, R squared 0.926): 5.13 µM; EC90 ([2]; Vero C1008): 0.683 µM |
| NCc1cccc(NC(=O)c2cc(Cl)cc3c2cnn3CC2CC2)c1 | > 50 | 12.4 | EC90 ([1]; Vero C1008, Baseline response 0 %, Hill slope 0.179, Maximum measured 64.548 %, Maximum response 100 %, Minimum measured -3.549 %, R squared 0.025): > 50 µM; EC90 ([2]; Vero C1008): > 12.5 µM |
| CC(C)Oc1ccc(S(=O)(=O)Nc2ccc(Cl)cc2C(=O)O)cc1 | > 50 | 11.1 | EC90 ([1]; Vero C1008, Baseline response 0 %, Hill slope 0.349, Maximum measured 6.596 %, Maximum response 100 %, Minimum measured -0.897 %, R squared 0.277): > 50 µM; EC90 ([2]; Vero C1008, Baseline response 0 %, Hill slope -49.91, Maximum measured 106.831 %, Maximum response 100 %, Minimum measured 0.108 %, P-gp concentration 500 nM, R squared 0.989, P-gp inhibitor CP100356): 11.6 µM |
| O=C(Nc1cccc(-c2nnn[nH]2)c1)c1cc(Cl)cc2[nH]ncc12 | > 50 | > 50 | EC90 ([1]; Vero C1008, Maximum measured 0.889 %, Minimum measured -1.258 %): > 50 µM; EC90 ([2]; Vero C1008, Maximum measured 107.824 %, Minimum measured 101.456 %, P-gp concentration 500 nM, P-gp inhibitor CP100356): > 50 µM |
| O=C(Nc1cc(Cl)cc(C(=O)Nc2cccc([C@H]3C[C@H]3C(=O)O)c2)c1)OCc1ccccc1 | > 50 | > 50 | EC90 ([1]; Vero C1008, Baseline response 0 %, Hill slope 7.946, Maximum measured 10.264 %, Maximum response 100 %, Minimum measured -1.789 %, R squared 0.722): > 50 µM; EC90 ([2]; Vero C1008, Maximum measured 111.056 %, Minimum measured 105.114 %, P-gp concentration 500 nM, P-gp inhibitor CP100356): > 50 µM |
| O=C(Nc1cc(Cl)cc(-c2ccc3[nH]nc(C(=O)O)c3c2)c1)OCc1ccccc1 | > 50 | > 50 | EC90 ([1]; Vero C1008, Baseline response 0 %, Hill slope 0.266, Maximum measured 1.773 %, Maximum response 100 %, Minimum measured -0.573 %, R squared 0.018): > 50 µM; EC90 ([2]; Vero C1008, Maximum measured 168.4 %, Minimum measured 111.066 %, P-gp concentration 500 nM, P-gp inhibitor CP100356): > 50 µM |
| O=C(NCC1CC1)c1cc(Cl)ccc1NS(=O)(=O)c1ccc(Oc2ccccc2Cl)cc1 | > 50 | 6.05 | EC90 ([1]; Vero C1008, Maximum measured -0.067 %, Minimum measured -1.21 %): > 50 µM; EC90 ([2]; Vero C1008, Baseline response 0 %, Hill slope -26.927, Maximum measured 110.675 %, Maximum response 100 %, Minimum measured 0.394 %, P-gp concentration 500 nM, R squared 0.827, P-gp inhibitor CP100356): 6.57 µM |
| CCOCCNC(=O)c1cc(Cl)ccc1NS(=O)(=O)c1ccc(Oc2ccccc2Cl)cc1 | > 50 | 7.26 | EC90 ([1]; Vero C1008, Maximum measured 1.013 %, Minimum measured -2.996 %): > 50 µM; EC90 ([2]; Vero C1008, Baseline response 0 %, EC90 CI (lower) 5.297 uM, EC90 CI (upper) 7.186 uM, Hill slope -13.477, Maximum measured 106.241 %, Maximum response 100 %, Minimum measured 0.021 %, P-gp concentration 500 nM, R squared 0.993, P-gp inhibitor CP100356): 8.55 µM |
| O=C(Nc1cc(Cl)cc([C@H]2C[C@@H]2c2cccc(C3CCNCC3)c2)c1)OCc1ccccc1 | > 50 | 1.94 | EC90 ([1]; Vero C1008, Maximum measured 2.266 %, Minimum measured -4.892 %): > 50 µM; EC90 ([2]; Vero C1008, Baseline response 0 %, Hill slope -2.737, Maximum measured 87.189 %, Maximum response 100 %, Minimum measured 17.217 %, P-gp concentration 500 nM, R squared 0.653, P-gp inhibitor CP100356): > 3.12 µM |
| CCNC(=O)Nc1cc(Cl)cc(C(=O)Nc2ccc3c(c2)CNCCO3)c1 | > 50 | > 25 | EC90 ([1]; Vero C1008, Baseline response 0 %, Hill slope 2.475, Maximum measured 7.686 %, Maximum response 100 %, Minimum measured -0.684 %, R squared 0.693): > 50 µM; EC90 ([2]; Vero C1008, Maximum measured 150.987 %, Minimum measured 108.938 %, P-gp concentration 500 nM, P-gp inhibitor CP100356): > 25 µM |
| NCc1cccc(NC(=O)c2cc(Cl)cc(C3CC3)c2)c1 | 15.7 | 21.6 | EC90 ([1]; Vero C1008, Baseline response 0 %, EC90 CI (lower) 20.759 uM, EC90 CI (upper) 27.074 uM, Hill slope 5.361, Maximum measured 91.947 %, Maximum response 100 %, Minimum measured -3.838 %, R squared 0.99): 23.7 µM; EC90 ([2]; Vero C1008): 24.7 µM |
| NCc1cccc(NC(=O)c2cc(Cl)cc3[nH]ncc23)c1 | > 50 | > 50 | EC90 ([1]; Vero C1008, Maximum measured 0.74 %, Minimum measured -1.239 %): > 50 µM; EC90 ([2]; Vero C1008, Maximum measured 106.767 %, Minimum measured 104.405 %, P-gp concentration 500 nM, P-gp inhibitor CP100356): > 50 µM |
| O=C(NC1CCCCC1)c1cc(Cl)ccc1NS(=O)(=O)c1ccc(Oc2ccccc2Cl)cc1 | > 50 | 3.2 | EC90 ([1]; Vero C1008, Baseline response 0 %, Hill slope 0.673, Maximum measured 7.428 %, Maximum response 100 %, Minimum measured -1.415 %, R squared 0.499): > 50 µM; EC90 ([2]; Vero C1008): 3.72 µM |
| O=C(Nc1cccc(-c2nnn[nH]2)c1)c1cc(Cl)cc(C2CC2)c1 | > 50 | > 50 | EC90 ([1]; Vero C1008, Maximum measured 1.772 %, Minimum measured -2.796 %): > 50 µM; EC90 ([2]; Vero C1008, Maximum measured 109.091 %, Minimum measured 105.083 %, P-gp concentration 500 nM, P-gp inhibitor CP100356): > 50 µM |
| O=C(O)c1cc(Cl)c(F)cc1S(=O)(=O)Nc1ccc(Oc2ccccc2Cl)cc1 | 39.6 | 25.1 | EC90 ([1]; Vero C1008, Baseline response 0 %, EC90 CI (lower) 44.524 uM, EC90 CI (upper) 54.445 uM, Hill slope 10.107, Maximum measured 91.318 %, Maximum response 100 %, Minimum measured 0.941 %, R squared 0.971): 49.2 µM; EC90 ([2]; Vero C1008, Baseline response 0 %, Hill slope -22.82, Maximum measured 108.329 %, Maximum response 100 %, Minimum measured 0.118 %, P-gp concentration 500 nM, R squared 0.881, P-gp inhibitor CP100356): 27.7 µM |
| CC(=O)NCc1cccc(NC(=O)c2cc(Cl)cc(NC(=O)OCc3ccccc3)c2)c1 | > 50 | 10.4 | EC90 ([1]; Vero C1008, Baseline response 0 %, Hill slope 0.809, Maximum measured 24.23 %, Maximum response 100 %, Minimum measured -4.371 %, R squared 0.519): > 50 µM; EC90 ([2]; Vero C1008, Baseline response 0 %, EC90 CI (lower) 4.143 uM, EC90 CI (upper) 6.94 uM, Hill slope -3.293, Maximum measured 105.977 %, Maximum response 100 %, Minimum measured 1.058 %, P-gp concentration 500 nM, R squared 0.979, P-gp inhibitor CP100356): 20.4 µM |
| NCc1cc(Cl)cc(C(=O)Nc2ccc3c(c2)CNC3)c1 | > 50 | > 50 | EC90 ([1]; Vero C1008, Maximum measured 0.38 %, Minimum measured -0.268 %): > 50 µM; EC90 ([2]; Vero C1008, Maximum measured 110.007 %, Minimum measured 106.028 %, P-gp concentration 500 nM, P-gp inhibitor CP100356): > 50 µM |
| O=C(Nc1cc(Cl)cc(C(=O)Nc2ccc3c(c2)CNCC3)c1)OCc1ccccc1 | < 0.391 | 1.52 | EC90 ([1]; Vero C1008, Baseline response 0 %, Hill slope -0.286, Maximum measured 50.319 %, Maximum response 100 %, Minimum measured -3.545 %, R squared 0.037): < 0.391 µM; EC90 ([2]; Vero C1008): 1.8 µM |
